Results reported in US8962608B2, “Cycloalkylnitrile pyrazole carboxamides as janus kinase inhibitors” (Merck Sharp & Dohme Corp., priority 2011, dated 2015).
Structures can show the parent of a compound that is named as a salt. Where two headings read alike, the source gives them in different places.

How the values were obtained:
[1] = biological target: T1, JAK1 (recombinant purified GST-tagged catalytic domain) (Homo sapiens (Human), UniProt P23458);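 note: biochemical assay with HTRF read-out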
[2] = biological target: T1, JAK1 (recombinant purified GST-tagged catalytic domain); test: biochemical
[3] = biological target: JAK2 (recombinant purified GST-tagged catalytic domain) (Homo sapiens (Human), UniProt O60674); test: biochemical;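 note: biochemical JAK kinase assay with HTRF detection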
JAK2 (recombinant purified GST-tagged catalytic domain), sequence (O60674 849-1124): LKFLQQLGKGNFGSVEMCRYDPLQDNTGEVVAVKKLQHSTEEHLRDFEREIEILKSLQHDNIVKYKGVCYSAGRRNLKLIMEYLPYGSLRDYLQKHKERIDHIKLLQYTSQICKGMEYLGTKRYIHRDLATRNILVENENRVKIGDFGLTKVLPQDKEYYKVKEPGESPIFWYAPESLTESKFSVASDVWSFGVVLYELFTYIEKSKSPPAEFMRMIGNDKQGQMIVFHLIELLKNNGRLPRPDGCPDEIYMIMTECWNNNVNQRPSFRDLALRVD

T1 sequence (P23458 875-1153): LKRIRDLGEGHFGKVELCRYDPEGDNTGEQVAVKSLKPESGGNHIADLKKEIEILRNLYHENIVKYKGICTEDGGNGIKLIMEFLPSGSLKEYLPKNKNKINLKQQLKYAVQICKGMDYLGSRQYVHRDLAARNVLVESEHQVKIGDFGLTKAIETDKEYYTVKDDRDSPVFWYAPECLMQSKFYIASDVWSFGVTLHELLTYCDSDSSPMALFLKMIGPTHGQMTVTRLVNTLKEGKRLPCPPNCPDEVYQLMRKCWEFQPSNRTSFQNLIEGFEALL

Work on `C[N+]1([C@H]2CC[C@H](n3cc(C(N)=O)c(Nc4ccc(Cl)cc4)n3)[C@@H](C#N)C2)CCC1` [Example 31-2, 1-[(1S,3S,4S)-4-{4-carbamoyl-3-[(4-chlorophenyl)amino]-1H-pyrazol-1-yl}-3-cyanocyclohexyl]-1-methylazetidinium] yielded an IC50 [1] of 1 nM.

With `Cc1cncc(Nc2nn([C@H]3CCCC[C@@H]3C#N)cc2C(N)=O)c1` [Example 17-73, 1-[(1S,2S)-2-cyanocyclohexyl]-3-[(5-methylpyridin-3-yl)amino]-1H-pyrazole-4-carboxamide] the IC50 [1] was 16 nM.

Compound `CC1(C)CN([C@H]2CC[C@H](n3cc(C(N)=O)c(Nc4ccnc(F)c4)n3)[C@@H](C#N)C2)C1` (single isomer, unassigned) [Example 28-134, 1-[(1S,2S,4S or 1R,2R,4R )-2-cyano-4-(3,3-dimethylazetidin-1-yl)cyclohexyl]-3-[(2-fluoropyridin-4-yl)amino]-1H-pyrazole-4-carboxamide] has an IC50 [1] of 1 nM.

For `CN(C)[C@@H]1CC[C@H](n2cc(C(N)=O)c(Nc3ccc(S(=O)(=O)C(F)(F)F)cc3)n2)[C@@H](C#N)C1` (mixture of isomers) [Example 27-2, 1-[(1R,3S,4S and 1S,3R,4R)-4-[4-carbamoyl-3-({4-[(trifluoromethyl)sulfonyl]phenyl}amino)-1H-pyrazol-1-yl]-3-cyano-N,N-dimethylcyclohexanaminium trifluoroacetate], the IC50 [1] was 0.5 nM.

`CC(O)(c1ccc(Nc2nn([C@H]3CCCC[C@@H]3C#N)cc2C(N)=O)cn1)C(F)F` (single isomer, unassigned) [Example 17-40, 1-[(1S,2S or 1R,2R)-2-cyanocyclohexyl]-3-({6-[(1R or 1S)-2,2-difluoro-1-hydroxy-1-methylethyl]pyridin-3-yl}amino)-1H-pyrazole-4-carboxamide] showed an IC50 [1] of 0.24 nM.

`CC(=O)N1CCN(S(=O)(=O)c2ccc(Nc3nn([C@H]4CCCC[C@@H]4C#N)cc3C(N)=O)cc2)CC1` (single isomer, unassigned) [Example 17-89, 3-({4-[(4-acetylpiperazin-1-yl)sulfonyl]phenyl}amino)-1-[(1R,2R or 1S,2S)-2-cyanocyclohexyl]-1H-pyrazole-4-carboxamide] gave an IC50 [2] of 0.5 nM and an IC50 [3] of 1 nM.

In the case of `N#C[C@H]1C[C@@H](N2C[C@@H]3[C@@H](CO)[C@@H]3C2)CC[C@@H]1n1cc(C(N)=O)c(Nc2ccc(C(F)(F)F)cc2)n1` (single isomer, unassigned) [Example 28-34, 1-{(1S,2S,4S or 1R,2R,4R)-2-cyano-4-[(1R,5S,6S or 1S,5R,6R)-6-(hydroxymethyl)-3-azabicyclo[3.1.0]hex-3-yl]cyclohexyl}-3-{[4-(trifluoromethyl)phenyl]amino}-1H-pyrazole-4-carboxamide], the IC50 [2] is reported as 0.6 nM and the IC50 [3] is reported as 20 nM.

With `N#C[C@H]1C[C@H](OCC2CC2)CC[C@@H]1n1cc(C(N)=O)c(Nc2ccnc(F)c2)n1` (single isomer, unassigned) [Example 26-1, 1-[(1S,2S,4R or 1R,2R,4S)-2-cyano-4-(cyclopropylmethoxy)cyclohexyl]-3-[(2-fluoropyridin-4-yl)amino]-1H-pyrazole-4-carboxamide] the IC50 [2] was 2 nM and the IC50 [3] was 9 nM.

In the case of `N#C[C@H]1C[C@H](N2CCC2)CC[C@@H]1n1cc(C(N)=O)c(Nc2ccc(C(F)(F)F)cc2)n1` (single isomer, unassigned) [Example 28-131, 1-[(1S,2S,4R or 1R,2R,4S)-4-azetidin-1-yl-2-cyanocyclohexyl]-3-{[4-(trifluoromethyl)phenyl]amino}-1H-pyrazole-4-carboxamide], the IC50 [2] is reported as 0.9 nM and the IC50 [3] is reported as 51 nM.

In the case of `C[C@H](N[C@@H]1CC[C@H](n2cc(C(N)=O)c(Nc3ccc(Cl)c(F)c3)n2)[C@@H](C#N)C1)C1CC1` (single isomer, unassigned) [Example 28-48, 3-[(4-chloro-3-fluorophenyl)amino]-1-[(1S,2S,4R or 1R,2R,4S)-2-cyano-4-{[(1S or 1R)-1-cyclopropylethyl]amino}cyclo-hexyl]-1H-pyrazole-4-carboxamide], the IC50 [2] is reported as 8 nM and the IC50 [3] is reported as 215 nM.

For `N#C[C@H]1C[C@@H](C(=O)N2CC3(COC3)C2)CC[C@@H]1n1cc(C(N)=O)c(Nc2ccc(Cl)cc2)n1` (single isomer, unassigned) [Example 35-37, 3-[(4-chlorophenyl)amino]-1-[(1S,2S,4S or 1R,2R,4R)-2-cyano-4-(2-oxa-6-azaspiro[3.3]hept-6-ylcarbonyl)cyclohexyl]-1H-pyrazole-4-carboxamide], the IC50 [2] was 43 nM and the IC50 [3] was over 500 nM.

Compound `CN(C)[C@H]1CC[C@H](n2cc(C(N)=O)c(Nc3ccccc3)n2)[C@@H](C#N)C1` (single isomer, unassigned) [Example 28-135, 1-[(1S,2S,4S or 1R,2R,4R)-2-cyano-4-(dimethylamino)cyclohexyl]-3-(phenylamino)-1H-pyrazole-4-carboxamide] has an IC50 [2] of 0.65 nM and an IC50 [3] of 32 nM.

With `N#C[C@H]1C[C@H](OC(=O)NC2CCCCC2)CCC1n1cc(C(N)=O)c(Nc2ccc(F)cc2)n1` (mixture of isomers) [Example 34-5, (1R,3S,4S and 1S,3R,4R)-4-{4-carbamoyl-3-[(4-fluorophenyl)amino]-1H-pyrazol-1-yl}-3-cyanocyclohexyl cyclohexylcarbamate] the IC50 [2] was 7 nM and the IC50 [3] was 88 nM.

In the case of `N#C[C@@H]1C[C@H](C(=O)NC(C2CC2)C2CC2)CC[C@H]1n1cc(C(N)=O)c(Nc2ccc(Cl)cc2)n1` (single isomer, unassigned) [Example 35-5, 3-[(4-chlorophenyl)amino]-1-{(1R,2R,4R or 1S,2S,4S)-2-cyano-4-[(dicyclopropylmethyl)carbamoyl]cyclohcxyl}-1H-pyrazole-4-carboxamide], the IC50 [2] is reported as 13 nM and the IC50 [3] is reported as 169 nM.

Compound `N#C[C@H]1CCCC[C@@H]1n1cc(C(N)=O)c(Nc2ccc(S(=O)(=O)NCc3ccc(Cl)cc3)cc2)n1` (single isomer, unassigned) [Example 17-90, 3-({4-[(4-chlorobenzyl)sulfamoyl]phenyl}amino)-1-[(1R,2R or 1S,2S)-2-cyanocyclohexyl]-1H-pyrazole-4-carboxamide] has an IC50 [2] of 1 nM and an IC50 [3] of 4 nM.

`N#Cc1ccc(Nc2nn([C@H]3CC[C@H](O)C[C@@H]3C#N)cc2C(N)=O)cc1` (single isomer, unassigned) [Example 33-6, 1-[(1S,2S,4S or 1R,2R,4R)-2-cyano-4-hydroxycyclohexyl]-3-[(4-cyanophenyl)amino]-1H-pyrazole-4-carboxamide] gave an IC50 [2] of 0.5 nM and an IC50 [3] of 3 nM.

For `N#C[C@H]1C[C@@H](NC(C2CC2)C2CC2)CC[C@@H]1n1cc(C(N)=O)c(Nc2ccc(S(=O)(=O)C(F)(F)F)cc2)n1` (single isomer, unassigned) [Example 28-180, 1-{(1S,2S,4S or 1R,2R,4R)-2-cyano-4-[(dicyclopropyl-methyl)amino]cyclohexyl}-3-({4-[(trifluoro-methyl)sulfonyl]phenyl}amino)-1H-pyrazole-4-carboxamide], the IC50 [2] was 0.6 nM and the IC50 [3] was 39 nM.

With `N#C[C@H]1CC(N2CC[C@H](F)C2)CC[C@@H]1n1cc(C(N)=O)c(Nc2ccc(S(=O)(=O)C(F)(F)F)cc2)n1` (single isomer, unassigned) [Example 28-158, 1-{(1S,2S or 1R,2R)-2-cyano-4-[(3S)-3-fluoropyrrolidin-1-yl]cyclohexyl}-3-({4-[(trifluoro-methyl)sulfonyl]phenyl}amino)-1H-pyrazole-4-carboxamide] the IC50 [2] was 1 nM and the IC50 [3] was 17 nM.

`N#C[C@H]1CC(N(C2CC2)C2CC2)CC[C@@H]1n1cc(C(N)=O)c(Nc2ccc(S(=O)(=O)C(F)(F)F)cc2)n1` (single isomer, unassigned) [Example 28-181, 1-[(1S,2S or 1R,2R)-2-cyano-4-(dicyclopropylamino)cyclohexyl]-3-({4-[(trifluoro-methyl)sulfonyl]phenyl}amino)-1H-pyrazole-4-carboxamide] gave an IC50 [2] of 1 nM and an IC50 [3] of 16 nM.

With `N#C[C@H]1CCCC[C@@H]1n1cc(C(N)=O)c(Nc2ccc(Cl)c(Cl)c2)n1` (single isomer, unassigned) [Example 17-49, 1-[(1S,2S or 1R,2R)-2-cyanocyclohexyl]-3-[(3,4-dichlorophenyl)amino]-1H-pyrazole-4-carboxamide] the IC50 [2] was 17 nM and the IC50 [3] was 93 nM.

With `C[N+]1([C@H]2CC[C@H](n3cc(C(N)=O)c(Nc4ccc(C(F)(F)F)cc4)n3)[C@@H](C#N)C2)CCC1` (single isomer, unassigned) [Example 31-1, 1-((1S,3S,4S or 1R,3R,4R)-4-(4-carbamoyl-3-((4-(trifluoromethyl)phenyl)amino)-1H-pyrazol-1-yl)-3-cyanocyclohexyl)-1-methylazetidin-1-ium 2,2,2-trifluoroacetate] the IC50 [2] was 0.3 nM and the IC50 [3] was 33 nM.

For `N#C[C@H]1CCCC[C@@H]1n1cc(C(N)=O)c(Nc2ccc(S(=O)(=O)NCc3ccccc3Cl)cc2)n1` (single isomer, unassigned) [Example 17-91, 3-({4-[(2-chlorobenzyl)sulfamoyl]phenyl}amino)-1-[(1R,2R or 1S,2S)-2-cyanocyclohexyl]-1H-pyrazole-4-carboxamide], the IC50 [2] was 0.5 nM and the IC50 [3] was 2 nM.

`N#C[C@H]1C[C@H](O)CCC1n1cc(C(N)=O)c(Nc2ccccc2)n1` (mixture of isomers) [Example 2-2, 1-[(1S,2S,4R and 1R,2R,4S)-2-cyano-4-hydroxycyclohexyl]-3-(phenylamino)-1H-pyrazole-4-carboxamide] gave an IC50 [2] of 6 nM and an IC50 [3] of 70 nM.

`N#C[C@H]1CC(NCC(=O)O)CC[C@@H]1n1cc(C(N)=O)c(Nc2ccc(S(=O)(=O)C(F)(F)F)cc2)n1` (single isomer, unassigned) [Example 28-160, N-{(3S,4S or 3R,4R)-4-[4-carbamoyl-3-({4-[(trifluoro-methyl)sulfonyl]phenyl}amino)-1H-pyrazol-1-yl]-3-cyanocyclohexyl}glycine] showed an IC50 [2] of 0.2 nM and an IC50 [3] of 1 nM.

`N#C[C@H]1CCCC[C@@H]1n1cc(C(N)=O)c(Nc2ccc(S(=O)(=O)NCc3ccccn3)cc2)n1` (single isomer, unassigned) [Example 17-85, 1-[(1R,2R or 1S,2S)-2-cyanocyclohexyl]-3-({4-[(pyridin-2-ylmethyl)sulfamoyl]phenyl}amino)-1H-pyrazole-4-carboxamide] gave an IC50 [2] of 0.9 nM and an IC50 [3] of 4 nM.
